Experimental data: article PMC3083228 (The Journal of Biological Chemistry, 2011)

Molecular target: T1, SpIH (Strongylocentrotus purpuratus, UniProt O76977)
T1 sequence (O76977 1-767): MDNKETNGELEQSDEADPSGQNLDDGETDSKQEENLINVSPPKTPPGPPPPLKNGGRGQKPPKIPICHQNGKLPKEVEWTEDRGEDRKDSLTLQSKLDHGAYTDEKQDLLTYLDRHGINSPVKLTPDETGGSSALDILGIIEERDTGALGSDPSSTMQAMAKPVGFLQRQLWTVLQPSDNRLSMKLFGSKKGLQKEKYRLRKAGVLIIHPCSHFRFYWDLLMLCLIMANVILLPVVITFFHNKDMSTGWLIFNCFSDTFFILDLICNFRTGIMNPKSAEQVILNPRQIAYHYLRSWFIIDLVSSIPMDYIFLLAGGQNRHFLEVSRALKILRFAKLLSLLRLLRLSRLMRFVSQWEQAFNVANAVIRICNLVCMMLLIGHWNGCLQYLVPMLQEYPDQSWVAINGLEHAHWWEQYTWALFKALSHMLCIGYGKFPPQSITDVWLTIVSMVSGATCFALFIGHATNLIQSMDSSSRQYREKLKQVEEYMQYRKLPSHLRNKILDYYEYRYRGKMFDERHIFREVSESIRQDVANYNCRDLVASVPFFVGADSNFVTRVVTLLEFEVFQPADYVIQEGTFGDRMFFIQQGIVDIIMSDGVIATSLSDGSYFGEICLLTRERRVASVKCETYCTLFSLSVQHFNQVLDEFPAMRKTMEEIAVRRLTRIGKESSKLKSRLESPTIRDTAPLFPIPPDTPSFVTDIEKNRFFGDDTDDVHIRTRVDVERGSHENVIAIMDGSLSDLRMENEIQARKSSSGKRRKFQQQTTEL
Type: cell-based

- IC50: 13.6 µM
Compound: CCCCCCCC(=O)OC[C@H](COP(=O)(O)O[C@H]1[C@H](O)[C@@H](O)[C@H](OP(=O)(O)O)[C@@H](O)[C@H]1O)OC(=O)CCCCCCC [diC8-PIP]
